The target of this assay is recombinant CYP2D6 (Homo sapiens, UniProt P10635). Nature of the assay: Bufuralol 1'-hydroxylase assay (CYP2D6) IC50 determination.
The mark [1] stands for this setting: CYP2D6 IC50, recombinant CYP2D6 0.1 mg/ml, bufuralol 3.4 μM, 37° C., pH 7.4, Table I.
Setting [2] is: IC50 Observed, test set of 8 compounds, in vitro values as measured in Example 1, Table II.

Read-outs that look alike come from different tables or passages of the source.

Drawing on patent US6564152B2, “Pharmacophore models for, methods of screening for, and identification of the cytochrome P-450 inhibitory potency of neurokinin-1 receptor antagonists” (Pfizer Inc, priority 2000, dated 2003), this text covers IC50 for 24 compounds.

Sequence of recombinant CYP2D6 (P10635 whole entry): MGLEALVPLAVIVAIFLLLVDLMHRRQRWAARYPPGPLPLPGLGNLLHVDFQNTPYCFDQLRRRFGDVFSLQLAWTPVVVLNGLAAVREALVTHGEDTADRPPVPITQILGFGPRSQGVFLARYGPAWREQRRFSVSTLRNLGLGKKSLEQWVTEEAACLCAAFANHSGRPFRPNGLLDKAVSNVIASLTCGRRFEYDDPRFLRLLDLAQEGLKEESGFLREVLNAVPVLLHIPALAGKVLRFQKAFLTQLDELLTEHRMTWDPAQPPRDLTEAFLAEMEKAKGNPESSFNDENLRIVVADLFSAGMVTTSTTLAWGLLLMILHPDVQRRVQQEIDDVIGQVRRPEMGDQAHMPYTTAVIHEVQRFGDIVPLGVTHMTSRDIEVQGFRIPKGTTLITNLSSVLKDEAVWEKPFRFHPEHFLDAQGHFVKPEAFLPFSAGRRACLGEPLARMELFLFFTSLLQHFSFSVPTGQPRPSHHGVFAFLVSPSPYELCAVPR
Procedure: Using a bufuralol-hydroxylation as a marker for CYP2D6 catalytic activity, the inhibitory effect of various NK-1 antagonists were assessed in vitro. The inhibitor compounds of Table I were assayed for CYP2D6 activity by the following procedure.
Two separate plates were prepared for the substrate and for dilutions of inhibitor. The contents of the two plates were combined in a 1:1 ratio to make a master plate of substrate and inhibitor solutions (S/I plate). The remaining assay ingredients, a combination of CYP2D6 (0.1 mg/ml, 0.12 pmol/ml, Panvera, Madison Wis.), NADPH (1.2 mM) and buffer (100 mM sodium phosphate, pH 7.4), are prepared on ice and transferred to a polyvinyl reaction plate (RXN plate). […] The RXN plate is pre-warmed to 37° C. using a MJ Research Model PTC-100 automated thermal controller, and the reaction is initiated by addition of an aliquot from the S/I plate. The reaction is allowed to proceed at 37° C. before being terminated using 70% perchloric acid (50 μl). HPLC analysis is preceded by filtration of (150μl) using a Millipore multiscreen-MAHA mixed cellulose esters, triton free, non-sterile plate (Millipore Co., Bedford, Mass.).
The reactions were then terminated as described above and Multiscreen plates were then used to filter the samples by slowly drawing them through the filter plate by a weak vacuum and collecting them in a polypropylene 96-well plate. The plate was mixed by drawing up and expelling well contents twice with the Soken pipettor. A 20 μl volume of each sample was injected for HPLC analysis every 2.5 minutes. When required, concentrations of the inhibitor were adjusted in a repeat experiment to cover concentration ranges above and below the reported IC50 value.
The mobile phase consisted of acetonitrile and water 20/80 v/v containing triethylamine (1 ml/liter) and phosphoric acid (600 l/liter) at a flow rate of 0.5 ml/min (analytical side) and 1.8 ml/min (wash side) using a column switching format. HPLC analysis was performed with two alternating HPLC columns (column A and column B) attached to a Valco E36 valve. Between 0 and 5.2 minutes of the run time, column A analyses metabolite peak of sample #1. […] During the wash cycle, the flow to column A is increased to 1.8 ml/min. […] A Phenomex primesphere C1 8-MC, 5 μm, 30×2 mm column (Phenomenex, Torrance, Calif.) was used. The retention time of the 1′-hydroxybufuralol (carbinol) metabolite was 1.0 minute. The peak area of the carbinol metabolite was determined in the absence of inhibitor and compared to that measured in the presence of inhibitor. The percent of control values versus inhibitor concentration were fitted to a Hill equation using non-linear curve fitting methods, namely, Deltagraph (DeltaPoint, Inc., Monterey, Calif.).

On to `O=c1[nH]nc(CN2CCO[C@H](OCc3cc(C(F)(F)F)cc(C(F)(F)F)c3)[C@@H]2c2ccccc2)[nH]1` [Compound XXIV], for which the half-maximal inhibitory concentration (IC50) reads like this: under setting [1], 7100 nM; under setting [2], 7100 nM. Regarding `C[C@@H](O[C@H]1OCCN(Cc2n[nH]c(=O)[nH]2)[C@H]1c1ccc(F)cc1)c1cc(C(F)(F)F)cc(C(F)(F)F)c1` [Compound XXI], under setting [1], the half-inhibitory concentration (IC50) worked out at 18400 nM.

On to `COc1ccccc1[C@H]1CC[C@]2(CCCN[C@@H]2c2ccccc2)NC1` [Compound XX], for which, under setting [1], the IC50 was found to be 21 nM.

In the case of `COc1ccc(OC)c(CN[C@H]2CCCN[C@H]2c2ccccc2)c1` [Compound X], under setting [1], the half-maximal inhibitory concentration (IC50) came to 370 nM.

For the compound `COc1ccccc1CN[C@@H]1C2CCN(CC2)[C@@H]1C(c1ccccc1)c1ccccc1` [III], the IC50 under setting [1] was found to be 170 nM. For the compound `COc1ccccc1CN[C@@H]1CCCC[C@@H]1C(c1ccccc1)c1ccccc1` [II], the concentration for half-maximal inhibition (IC50) under setting [1] turned out to be 16 nM and the half-inhibitory concentration (IC50) under setting [2] stood at 16 nM. Consider `COc1ccccc1CN[C@H]1CCCN[C@H]1c1ccccc1` [IV], for which the 50% inhibitory concentration (IC50) under setting [1] is 200 nM and the IC50 under setting [2] turned out to be 21 nM. With `COc1ccccc1CN[C@@H]1[C@H]2CCC[C@H]2N[C@@H]1c1ccccc1` [IX], under setting [1], the IC50 turned out to be 130 nM. As for `Clc1ccccc1CN[C@@H]1C2CCN(CC2)[C@@H]1C(c1ccccc1)c1ccccc1` [I], the concentration for half-maximal inhibition (IC50) was 59 nM. As to `COc1ccccc1CN[C@@H]1C2CC3CCCC(C2)N3[C@@H]1C(c1ccccc1)c1ccccc1` [VIII], under setting [1], the half-maximal inhibitory concentration (IC50) came out at 22 nM. On the same count and under the same terms, under `Clc1ccccc1CN[C@@H]1C2CC3CCC(C2)N3[C@@H]1C(c1ccccc1)c1ccccc1` [VII] stands 65 nM. As for `c1ccc(CN[C@@H]2C3CC4CCC(C3)N4[C@@H]2C(c2ccccc2)c2ccccc2)cc1` [VI], the IC50 under setting [1] amounted to 13 nM and the half-inhibitory concentration (IC50) under setting [2] is 13 nM. `COc1ccccc1CN[C@@H]1C2CC3CCC(C2)N3[C@@H]1C(c1ccccc1)c1ccccc1` [V]: the half-maximal inhibitory concentration (IC50) under setting [1] is 41 nM. The same measure, in the same setting: under `COc1ccccc1CC(=N)N1C[C@H]2C(=O)CCC(c3ccccc3)(c3ccccc3)[C@H]2C1` [XIII] stands 13 nM. The same measure, in the same setting: then `COc1ccccc1CN[C@@H]1C2C3CCCC2CN(C3)[C@@H]1C(c1ccccc1)c1ccccc1` [XII], with 6.7 nM. Turning to `CC(C)Oc1ccccc1CN[C@H]1CCCN[C@H]1c1ccccc1` [XIV], the IC50 under setting [1] turned out to be 38 nM and the 50% inhibitory concentration (IC50) under setting [2] came to 38 nM. Turning to `CC(C)Oc1ccc(OC(F)(F)F)cc1CN[C@H]1CCCN[C@H]1c1ccccc1` [XIX], the half-inhibitory concentration (IC50) came out at 47 nM.

Regarding `Clc1ccccc1CN[C@@H]1C2C3CCCC2CN(C3)[C@@H]1C(c1ccccc1)c1ccccc1` [XI], the IC50 runs as follows: under setting [1], 16 nM; under setting [2], 16 nM. For the compound `CCOc1ccc(OC(F)(F)F)cc1CN[C@H]1CCCN[C@H]1c1ccccc1` [XVIII], the IC50 under setting [1] came to 45 nM. As for `FC(F)(F)Oc1ccccc1CN[C@H]1CCCN[C@H]1c1ccccc1` [XVII], the IC50 under setting [1] was 40 nM.

With `FC(F)Oc1ccccc1CN[C@H]1CCCN[C@H]1c1ccccc1` [XVI], the concentration for half-maximal inhibition (IC50) under setting [1] was found to be 74 nM. On to `FC(F)(F)c1cc(CO[C@H]2OCCN(Cc3nnc[nH]3)[C@H]2c2ccccc2)cc(C(F)(F)F)c1` [XXIII], for which, under setting [1], the IC50 came out at 8800 nM. Turning to `COc1ccc(-n2nnnc2C(F)(F)F)cc1CN[C@H]1CCCN[C@H]1c1ccccc1` [XXVI], under setting [1], the half-inhibitory concentration (IC50) worked out at 530 nM. As for `COc1ccc(-n2cnnn2)cc1CN[C@H]1CCCN[C@H]1c1ccccc1` [XXV], the IC50 under setting [1] turned out to be 320 nM and the half-inhibitory concentration (IC50) under setting [2] amounted to 320 nM.
